In paper PMC3476531, “Synergy of Peptide and Sugar in O-GlcNAcase Substrate Recognition” (Chemistry & Biology, 2012) one finds Km data, which are given here for three substances.

The target in one experiment is T1, hOGA Y69K (Homo sapiens, UniProt O60502, Y69K).
T1 construct: GST (N); made in house; host or cells: transiently transfected HEK293 cells
T1 sequence (O60502 1-916 Y69K): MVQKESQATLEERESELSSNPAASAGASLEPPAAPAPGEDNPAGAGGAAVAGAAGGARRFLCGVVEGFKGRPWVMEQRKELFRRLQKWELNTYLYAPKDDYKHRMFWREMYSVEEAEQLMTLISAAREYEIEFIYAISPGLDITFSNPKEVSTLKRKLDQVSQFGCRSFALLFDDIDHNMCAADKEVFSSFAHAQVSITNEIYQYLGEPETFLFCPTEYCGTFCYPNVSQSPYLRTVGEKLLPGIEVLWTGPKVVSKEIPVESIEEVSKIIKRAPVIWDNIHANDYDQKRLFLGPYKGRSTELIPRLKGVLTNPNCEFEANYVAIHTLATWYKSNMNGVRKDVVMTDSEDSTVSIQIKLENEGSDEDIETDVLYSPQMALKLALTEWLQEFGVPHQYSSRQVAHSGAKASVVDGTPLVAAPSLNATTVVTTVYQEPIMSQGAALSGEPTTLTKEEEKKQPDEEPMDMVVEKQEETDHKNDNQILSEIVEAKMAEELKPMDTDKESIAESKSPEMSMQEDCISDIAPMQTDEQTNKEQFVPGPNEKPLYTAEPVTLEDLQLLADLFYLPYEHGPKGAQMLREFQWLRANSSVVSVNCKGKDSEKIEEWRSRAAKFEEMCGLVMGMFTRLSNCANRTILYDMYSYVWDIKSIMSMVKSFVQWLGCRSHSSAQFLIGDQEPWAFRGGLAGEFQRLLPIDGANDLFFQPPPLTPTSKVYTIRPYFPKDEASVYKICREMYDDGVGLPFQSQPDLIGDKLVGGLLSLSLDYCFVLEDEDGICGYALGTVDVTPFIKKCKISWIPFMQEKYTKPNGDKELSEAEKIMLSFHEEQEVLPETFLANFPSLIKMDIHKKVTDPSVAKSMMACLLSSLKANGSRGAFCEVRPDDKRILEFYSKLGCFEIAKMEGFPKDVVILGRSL
As to the kind of experiment: hOGA Y69K mutant glycopeptide hydrolysis, substrate competition assay. Format: biochemical. As to conditions: hOGA point mutant Y69K; competition with 4MU-GlcNAc; 37°C, pH 7.4; triplicate; read-out: Michaelis constant (KM) for hOGA Y69K.

For a further experiment, the target named is T2, hOGA (Homo sapiens, UniProt O60502).
T2 sequence (O60502 1-916): T1 sequence (O60502 1-916 Y69K) with K69Y
As to the kind of experiment: hOGA glycopeptide hydrolysis, substrate competition assay with 4MU-GlcNAc reporter. Format: biochemical. Details: GST (N); made in house; host or cells: transiently transfected HEK293 cells. The following applies: wild-type full-length hOGA, competition with 4MU-GlcNAc reporter substrate, 37°C, 50 mM citrate-phosphate buffer pH 7.4, 0.1 mg/ml BSA, triplicate, ± error of curve-fit, read-out: Michaelis constant (KM) of glycopeptide substrate for hOGA. The method, then: Protein was expressed in transiently transfected HEK293 cells and purified via glutathione sepharose affinity chromatography.
hOGA and CpOGA glycopeptide hydrolysis assays were carried out as described previously ([Dorfmueller et al., 2006; Schimpl et al., 2010]) using multisubstrate enzyme kinetics with the fluorigenic pseudosubstrate 4MU-GlcNAc as the reporter substrate. […] Reactions were performed at 37°C in 50 mM citrate-phosphate buffer (pH 7.4) and 0.1 mg/ml BSA. Experiments were performed in triplicate, and data were analyzed and plotted with GraphPad PRISM.

Where a chain is given by its changes, count along the chain named. Read-outs that look alike come from different tables or passages of the source. Some results are limits rather than exact numbers.

As for “PVSVPYS(O-GlcNAc)SAQSTS [TAB1 (Ser395) 13, 13-residue O-GlcNAc glycopeptide derived from TAB1 Ser395 site]”, the Km (commonly the concentration of substrate that gives half-maximal velocity) was over 4000 µM on hOGA Y69K, 940 ± 80 µM at hOGA (listed as PVSVPYS(O-GlcNAc)SAQSTS) and 900 ± 30 µM on hOGA.

Consider “VAHS(O-GlcNAc)GAK [hOGA (Ser405) 7, 7-residue O-GlcNAc glycopeptide derived from hOGA Ser405 site]”, for which, on hOGA Y69K, the Km is over 4000 µM.

Take “p53 (Ser149) 11: 11-residue O-GlcNAc glycopeptide derived from p53 Ser149 site”: the Km is 350 ± 20 µM in the experiment with hOGA Y69K and 21 ± 3 µM with hOGA.
